Experimental data as given in patent publication US9303035B2, “Substituted pyrazino[1′,2′:1,2]pyrrolo[3,4-d]pyrimidines, pyrimido[4′,5′:3,4]pyrrolo[2,1-c][1,4]oxazines and pyrimido[4′,5′:3,4]pyrrolo[1,2-d][1,4]oxazepines for inhibiting the CFTR channel” (Novartis AG, priority 2012, dated 2016).

Biological target: CFTR (WT-CFTR channels stably expressed in CHO cells) (Homo sapiens (Human), UniProt P13569)
Test: IonWorks Quattro CFTR inhibitor assay (whole-cell population patch clamp, forskolin-activated current)
Type: cell-based
Settings: inward current (−100 mV); CHO cells stably expressing WT-CFTR; CFTR activated with 10 μM forskolin; 10 min compound incubation
Excerpt: CFTR activity can be quantified by electrophysiology methods, using the whole-cell configuration of the patch clamp technique (Hamill O, Marty A, Neher E, Sakmann B and Sigworth F. ‘Improved patch-clamp techniques for high resolution current recording from cells and cell-free membrane patches.’ Pflugers Archive 1981 391: 85-100). This assay directly measures the currents associated with chloride flow through CFTR channels whilst either maintaining or adjusting the transmembrane voltage. This assay can use either single glass micropipettes or parallel planar arrays to measure CFTR activity from native or recombinant cell systems. Currents measured using parallel planar arrays can be quantified using an appropriately equipped instrument such as the IonWorks Quattro (Molecular Devices Corporation, Sunnyvale, Calif.). The Quattro system can measure CFTR currents from either a single cell per recording well (HT configuration) or alternatively from a population of 64 cells per well (Population Patch Clamp PPC) (Finkel A, Wittel A, Yang N, Handran S, Hughes J, Costantin J. ‘Population patch clamp improves data consistency and success rates in the measurement of ionic currents.’ J Biomol Screen. 2006 August; 11(5):488-96).
Chinese hamster ovary (CHO) cells stably expressing WT-CFTR channels were used for the IonWorks Quattro experiments. Cells were maintained at 37° C. in 5% v/v CO2 at 100% humidity in MEM alpha medium supplemented with 10% (v/v) FCS, 100 U/mL Penicillin/Streptomycin, and 100 μg/L methotrexate. For experiments, cells were grown in 225 cm^2 tissue culture flasks until almost confluent. Cells were removed from the flask using trypsin-EDTA and resuspended in extracellular recording solution for immediate experimentation.
Cells, at a density of 1.5-2 million per mL, were placed on the Quattro system, added to the planar patch plate and seals allowed to establish for 5-10 mins. After assessing seal resistances (typically >50 MΩ), whole-cell access was obtained by perforation with 100 μg/mL amphotericin B. Baseline currents were measured by a pre-compound scan obtained by application of a voltage ramp from −100 to +100 mV. CFTR was activated by the addition of 10 μM forskolin to each of the 384 wells of the patch plate. After 5 min incubation the post-compound 1 currents were measured, again by application of a voltage ramp from −100 to +100 mV. Test compounds, diluted from 10 mM stocks in DMSO in extracellular solution were then added to the patch plate and were incubated for a further 10 min. The post-compound 2 currents were measured by the application of the same voltage ramp from −100 to +100 mV. The inhibition of CFTR was determined from the difference in current between the forskolin addition (post-compound 1) and the test compound (post-compound 2). This was determined at both −100 mV and +100 mV which represents the inward and outward current respectively.
Extracellular solution (ECS): 145 mM NaCl, 4 mM CsCl, 5 mM D-glucose, 10 mM TES, 1 mM CaCl2, 1 mM MgCl2, pH 7.4 NaOH
Intracellular solution (ICS): 113 mM L-Aspartic acid, 113 mM CsOH, 27 mM CsCl, 1 mM NaCl, 1 mM MgCl2, 1 mM EGTA, 10 mM TES. pH 7.2 with CsOH. Filter sterilized before use.

CFTR (WT-CFTR channels stably expressed in CHO cells), sequence (P13569 whole entry): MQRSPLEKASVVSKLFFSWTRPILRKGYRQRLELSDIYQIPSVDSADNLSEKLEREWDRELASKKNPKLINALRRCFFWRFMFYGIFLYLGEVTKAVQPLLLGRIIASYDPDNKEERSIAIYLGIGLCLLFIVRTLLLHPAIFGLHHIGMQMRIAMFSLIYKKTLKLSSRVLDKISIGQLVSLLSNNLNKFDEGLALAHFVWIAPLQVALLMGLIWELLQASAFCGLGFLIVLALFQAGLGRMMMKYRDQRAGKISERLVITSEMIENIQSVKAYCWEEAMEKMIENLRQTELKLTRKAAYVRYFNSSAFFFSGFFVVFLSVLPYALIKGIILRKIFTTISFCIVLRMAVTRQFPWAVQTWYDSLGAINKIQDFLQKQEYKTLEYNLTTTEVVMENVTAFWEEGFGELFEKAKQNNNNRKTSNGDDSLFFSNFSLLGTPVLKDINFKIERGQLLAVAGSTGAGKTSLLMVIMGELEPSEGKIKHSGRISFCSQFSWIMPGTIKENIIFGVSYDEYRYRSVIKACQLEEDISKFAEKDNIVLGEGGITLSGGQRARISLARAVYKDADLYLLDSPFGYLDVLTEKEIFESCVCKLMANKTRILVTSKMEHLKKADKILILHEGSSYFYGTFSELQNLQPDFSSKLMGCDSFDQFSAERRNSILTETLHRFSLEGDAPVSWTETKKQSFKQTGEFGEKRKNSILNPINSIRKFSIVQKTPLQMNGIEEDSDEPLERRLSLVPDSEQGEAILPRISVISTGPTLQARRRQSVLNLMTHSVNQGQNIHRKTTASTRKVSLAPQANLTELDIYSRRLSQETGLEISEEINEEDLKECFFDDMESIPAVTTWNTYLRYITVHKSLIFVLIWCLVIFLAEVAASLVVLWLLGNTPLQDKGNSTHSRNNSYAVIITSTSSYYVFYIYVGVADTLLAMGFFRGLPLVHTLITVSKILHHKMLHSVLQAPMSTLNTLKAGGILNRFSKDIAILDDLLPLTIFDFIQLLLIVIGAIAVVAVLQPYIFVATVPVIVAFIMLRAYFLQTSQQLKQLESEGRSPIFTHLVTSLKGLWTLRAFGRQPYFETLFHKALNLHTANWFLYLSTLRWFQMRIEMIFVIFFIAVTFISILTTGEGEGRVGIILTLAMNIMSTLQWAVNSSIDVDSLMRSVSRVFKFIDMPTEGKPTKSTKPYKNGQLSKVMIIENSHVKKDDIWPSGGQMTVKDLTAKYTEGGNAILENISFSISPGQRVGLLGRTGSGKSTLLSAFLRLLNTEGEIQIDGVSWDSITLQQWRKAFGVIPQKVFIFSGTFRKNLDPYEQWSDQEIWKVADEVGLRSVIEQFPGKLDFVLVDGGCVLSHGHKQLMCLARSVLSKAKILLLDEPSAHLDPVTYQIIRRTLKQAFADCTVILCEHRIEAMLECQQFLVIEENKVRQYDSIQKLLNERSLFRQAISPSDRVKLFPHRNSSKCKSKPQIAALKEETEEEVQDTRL

Row | SMILES | IC50
1 | Cn1c(=O)c2c(-c3ccccc3)n3c(c2n(C)c1=O)C(c1nccs1)NCC3 (stereo not shown) [Example 1.7, 1,3-Dimethyl-5-phenyl-10-(thiazol-2-yl)-7,8,9,10-tetrahydropyrazino[1′,2′:1,2]pyrrolo[3,4-d]pyrimidine-2,4(1H,3H)-dione] | 5.42 µM
2 | Cc1csc(-c2c3c(=O)n(C)c(=O)n(C)c3c3n2C[C@H](CO)O[C@H]3c2ccc(Cl)o2)n1 (stereo in doubt) [Example 7.0a, 10-(5-chlorofuran-2-yl)-8-(hydroxymethyl)-1,3-dimethyl-5-(4-methylthiazol-2-yl)-7,8-dihydro-1H-pyrimido[4′,5′:3,4]pyrrolo[2,1-c][1,4]oxazine-2,4(3H,10H)-dione] | 0.09 µM
3 | Cn1c(=O)c2c(-c3ccccc3)n3c(c2n(C)c1=O)C(C1CC=CCC1)NCC3 (stereo not shown) [Example 1.17, 10-(Cyclohex-3-en-1-yl)-1,3-dimethyl-5-phenyl-7,8,9,10-tetrahydropyrazino[1′,2′:1,2]pyrrolo[3,4-d]pyrimidine-2,4(1H,3H)-dione] | 18.1 µM
4 | Cn1c(=O)c2c(-c3cccc(Cl)c3)n3c(c2n(C)c1=O)[C@H](c1ccc(Cl)o1)O[C@@H](CO)C3 (stereo in doubt) [Example 8.1a, 10-(5-Chlorofuran-2-yl)-5-(3-chlorophenyl)-8-(hydroxymethyl)-1,3-dimethyl-7,8-dihydro-1H-pyrimido[4′,5′:3,4]pyrrolo[2,1-c][1,4]oxazine-2,4(3H,10H)-dione] | 0.12 µM
5 | Cn1c(=O)c2c(-c3cccc(F)c3)n3c(c2n(C)c1=O)[C@H](c1ccc(Cl)o1)O[C@@H](CO)C3 [Example 6, (8R,10R)-10-(5-Chlorofuran-2-yl)-5-(3-fluorophenyl)-8-(hydroxymethyl)-1,3-dimethyl-7,8-dihydro-1H-pyrimido[4′,5′:3,4]pyrrolo[2,1-c][1,4]oxazine-2,4(3H,10H)-dione] | 0.05 µM
6 | Cn1c(=O)c2c(-c3nc(CO)cs3)n3c(c2n(C)c1=O)C(c1ccc(Cl)o1)O[C@@H](CO)C3 (single isomer, unassigned) [Example 7.1a, 10-(5-Chlorofuran-2-yl)-8-(hydroxymethyl)-5-(4-(hydroxymethyl)thiazol-2-yl)-1,3-dimethyl-7,8-dihydro-1H-pyrimido[4′,5′:3,4]pyrrolo[2,1-c][1,4]oxazine-2,4(3H,10H)-dione] | 0.61 µM
7 | Cn1c(=O)c2c(-c3ccccc3)n3c(c2n(C)c1=O)[C@H](c1ccc(Cl)o1)N[C@@H](CO)C3 [Example 11a, 10-(5-Chlorofuran-2-yl)-8-(hydroxymethyl)-1,3-dimethyl-5-phenyl-7,8,9,10-tetrahydropyrazino[1′,2′:1,2]pyrrolo[3,4-d]pyrimidine-2,4(1H,3H)-dione] | 0.31 µM
8 | Cn1c(=O)c2c(-c3ccccc3)n3c(c2n(C)c1=O)C(c1ccc(Cl)cc1)NCC3 (stereo not shown) [Example 1.23, 10-(4-Chlorophenyl)-1,3-dimethyl-5-phenyl-7,8,9,10-tetrahydropyrazino[1′,2′:1,2]pyrrolo[3,4-d]pyrimidine-2,4(1H,3H)-dione] | 29.9 µM
9 | Cn1c(=O)c2c(-c3cccc(C#N)c3)n3c(c2n(C)c1=O)[C@H](c1ccc(Cl)o1)O[C@@H](CO)C3 (stereo in doubt) [Example 6.1, 3-(10-(5-chlorofuran-2-yl)-8-(hydroxymethyl)-1,3-dimethyl-2,4-dioxo-2,3,4,7,8,10-hexahydro-1H-pyrimido[4′,5′:3,4]pyrrolo[2,1-c][1,4]oxazin-5-yl)benzonitrile] | 0.24 µM
10 | Cc1ccc(C2NCCn3c(-c4ccccc4)c4c(=O)n(C)c(=O)n(C)c4c32)o1 (racemic) [Example 1.1, 1,3-Dimethyl-10-(5-methylfuran-2-yl)-5-phenyl-7,8,9,10-tetrahydropyrazino[1′,2′:1,2]pyrrolo[3,4-d]pyrimidine-2,4(1H,3H)-dione] | 4.64 µM
11 | Cc1csc([C@H]2O[C@@H](C)Cn3c(-c4ccccc4)c4c(=O)n(C)c(=O)n(C)c4c32)n1 [Example 12, (8S)-1,3,8-trimethyl-10-(4-methylthiazol-2-yl)-5-phenyl-7,8-dihydro-1H-pyrimido[4′,5′:3,4]pyrrolo[2,1-c][1,4]oxazine-2,4(3H,10H)-dione] | 0.6 µM
12 | Cc1ccc(C2OCCn3c(-c4ccccc4)c4c(=O)n(C)c(=O)n(C)c4c32)o1 (single isomer, unassigned) [Example 4.2, 1,3-dimethyl-10-(5-methylfuran-2-yl)-5-phenyl-7,8-dihydro-1H-pyrimido[4′,5′:3,4]pyrrolo[2,1-c][1,4]oxazine-2,4(3H,10H)-dione] | > 30 µM
13 | Cn1c(=O)c2c(-c3ccccc3)n3c(c2n(C)c1=O)C(C1CCCCC1)NCC3 (single isomer, unassigned) [Example 2.6, 10-Cyclohexyl-1,3-dimethyl-5-phenyl-7,8,9,10-tetrahydropyrazino[1′,2′:1,2]pyrrolo[3,4-d]pyrimidine-2,4(1H,3H)-dione] | 7.62 µM
14 | Cn1c(=O)c2c(-c3ccccc3)n3c(c2n(C)c1=O)[C@H](c1nc(Cl)cs1)COCC3 [Example 13, 11-(4-chlorothiazol-2-yl)-1,3-dimethyl-5-phenyl-7,8,10,11-tetrahydropyrimido[4′,5′:3,4]pyrrolo[1,2-d][1,4]oxazepine-2,4(1H,3H)-dione] | 3.53 µM
15 | Cn1c(=O)c2c(-c3ccccc3)n3c(c2n(C)c1=O)C(c1cccc(F)c1F)NCC3 (stereo not shown) [Example 1.14, 10-(2,3-Difluorophenyl)-1,3-dimethyl-5-phenyl-7,8,9,10-tetrahydropyrazino[1′,2′:1,2]pyrrolo[3,4-d]pyrimidine-2,4(1H,3H)-dione] | 11.5 µM
16 | Cc1ccc(C2OCCn3c(-c4ccccc4)c4c(=O)n(C)c(=O)n(C)c4c32)o1 (racemic) [Example 4.1, 1,3-Dimethyl-10-(5-methylfuran-2-yl)-5-phenyl-7,8-dihydro-1H-pyrimido[4′,5′:3,4]pyrrolo[2,1-c][1,4]oxazine-2,4(3H,10H)-dione] | 4.23 µM
17 | Cc1csc(C2NCCn3c(-c4cccc(Cl)c4)c4c(=O)n(C)c(=O)n(C)c4c32)n1 (stereo not shown) [Example 3.2, 5-(3-Chlorophenyl)-1,3-dimethyl-10-(4-methylthiazol-2-yl)-7,8,9,10-tetrahydropyrazino[1′,2′:1,2]pyrrolo[3,4-d]pyrimidine-2,4(1H,3H)-dione] | 0.64 µM
18 | CN(C)C[C@@H]1Cn2c(-c3cccc(Cl)c3)c3c(=O)n(C)c(=O)n(C)c3c2[C@H](c2ccc(Cl)o2)O1 (stereo in doubt) [Example 12.4, 10-(5-chlorofuran-2-yl)-5-(3-chlorophenyl)-8-((dimethylamino)methyl)-1,3-dimethyl-7,8-dihydro-1H-pyrimido[4′,5′:3,4]pyrrolo[2,1-c][1,4]oxazine-2,4(3H,10H)-dione] | 0.54 µM
19 | Cc1cc(C)cc(-c2c3c(=O)n(C)c(=O)n(C)c3c3n2CCNC3c2ccc(Cl)o2)c1 (stereo not shown) [Example 3.6, 10-(5-Chlorofuran-2-yl)-5-(3,5-dimethylphenyl)-1,3-dimethyl-7,8,9,10-tetrahydropyrazino[1′,2′:1,2]pyrrolo[3,4-d]pyrimidine-2,4(1H,3H)-dione] | 8.26 µM
20 | Cn1c(=O)c2c(-c3cccc(C#N)c3)n3c(c2n(C)c1=O)C(c1ccc(Cl)o1)NCC3 (single isomer, unassigned) [Example 2.9, 3-(10-(5-chlorofuran-2-yl)-1,3-dimethyl-2,4-dioxo-1,2,3,4,7,8,9,10-octahydropyrazino[1′,2′:1,2]pyrrolo[3,4-d]pyrimidin-5-yl)benzonitrile] | 0.59 µM
21 | Cn1c(=O)c2c(-c3cccc(C#N)c3)n3c(c2n(C)c1=O)[C@H](c1nc(Cl)cs1)CO[C@H](CO)C3 [Example 14, 3-(11-(4-chlorothiazol-2-yl)-8-(hydroxymethyl)-1,3-dimethyl-2,4-dioxo-1,2,3,4,7,8,10,11-octahydropyrimido[4′,5′:3,4]pyrrolo[1,2-d][1,4]oxazepin-5-yl)benzonitrile] | 1.96 µM
22 | Cn1c(=O)c2c(-c3cccc(Cl)c3)n3c(c2n(C)c1=O)C(c1ccc(Cl)o1)NCC3 (stereo not shown) [Example 3.1, 10-(5-Chlorofuran-2-yl)-5-(3-chlorophenyl)-1,3-dimethyl-7,8,9,10-tetrahydropyrazino[1′,2′:1,2]pyrrolo[3,4-d]pyrimidine-2,4(1H,3H)-dione] | 0.7 µM
